According to article PMC8162438, “Cancer cell-selective modulation of mitochondrial respiration and metabolism by potent organogold(III) dithiocarbamates” (Chemical Science, 2020):
“Also recorded” adds a separate entry of the source.

How the values were obtained:
[1] = UV-vis stability in PBS, DMEM and RPMI-1640; type: physicochemical; conditions: 50 μM, DMEM, RPMI-1640, 37 °C, over 24 h
Excerpt: We next evaluated the stability of all ten complexes in three relevant biological media, namely, PBS (phosphate-buffered saline), DMEM (Dulbecco's modified eagle medium), and RPMI-1640 (Roswell Park Memorial Institute-1640). RPMI-1640 contain several biological nucleophiles such as amino acids and extracellular relevant levels of GSH, which are common sources of reductants. Development of new drug molecules require proper characterization of compound stability in solution. To evaluate their stability, the complexes were prepared as a stock solution in DMSO (5 mM) and diluted with PBS or DMEM at room temperature to a final concentration of 50 μM. […]
UV-vis Stability in DMEM, PBS and RPMI-1640 at 37 °C. All spectra were recorded on a Shimadzu UV-1280 model instrument. […] Time periods of t = 0 h (after preparation of sample), 1 h, 6 h, 12 h, and 24 h were recorded. […] The absorbance profile was scanned from 650 nm to 240 nm for each scan. For each complex, the data were normalized to the highest absorbance at t = 0 h and plotted in GraphPad Prism 6. […]
Reactivity with GSH (UV-vis Spectroscopy). […] All spectra were recorded on a Shimadzu UV-1280 model instrument.
A blank was prepared by mixing 50 µL of DMSO and 1.95 mL of PBS. Time intervals of 5 minutes and 12 h were recorded. […] For each reaction, the spectrum was normalized to the highest absorbance and plotted in GraphPad Prism 6. […]

[2] = system: MDA-MB-231; assay: Cell cycle analysis by flow cytometry (PI); type: cell-based; conditions: MDA-MB-231, 0.1 μM
Experimental: The effect of 2a on cell cycle was studied by flow cytometry. We observed a time-dependent increase in G0/G1 cell cycle population over 24–72 h period. […] There are several small molecule drug candidates in clinical trials as inhibitors of CDK4/6 and induce G1 cell cycle arrest.[107–110] Thus, our finding is relevant for the design of gold based therapies for refractory tumors such as TNBC.[107–110] After 24 h, a 10% increase can be seen for G1 cell population as well as a 6% decrease in S phase in comparison to the control (Fig. 12B and C). […] The mitochondria control cellular ATP production, it is therefore possible that inhibition of mitochondria respiration and consequently low ATP levels lead to cell cycle arrest.[112–114] […]
with a final volume of 100 µL and incubated overnight at 37 °C. Compound 2a was prepared as a stock in DMSO and diluted to a working concentration of 200 µM with Seahorse XF96 assay buffer and then subsequently serial diluted by 3x to achieve multiple concentrations. The assay was performed using a pneumatic injection method of 2a, with the final injection concentrations of 0.1, 1, 3 , and 11 µM. This was followed by injection of oligomycin (1.5 µM), FCCP (0.6 µM) and rotenone/ antimycin A (0.5 µ M). […]
supplementary information of the following papers. 15-16
The Seahorse XF96 analysis for MRC5 was performed in an identical manner to MDA-MB-231 except that MRC5 cells were seeded at a density of 50,000 cells/well and an FCCP injection concentration of 0.6 µ M was used.
Cell Cycle Analysis. MDA-MB-231 cells were seeded at a density of 2 x 10^5 cells/well in a 6 well clear bottom plate with a final media volume of 2 mL and allowed to adhere overnight 37 °C. Compound 2a was prepared fresh as a stock in DMSO and added at a final concentration of 0.1 µM with a final volume of 2.5 mL. […] These solutions were stored at 4 °C until ready for analysis. […] The samples were then analyzed with FACS. […]

[3] = system: MRC5; assay: Seahorse XF96 mitochondria stress test (OCR), MRC5; type: cell-based, human; conditions: MRC5, 0.1–3 μM

SMILES: C[N+](C)=C1[S][Au-2]2([S]1)[c]1ccccc1C(=O)c1cccc[n+]12.F[P-](F)(F)(F)(F)F (stereo not drawn) [1a]
- Stability in biological media (UV-vis absorbance) [1]: no significant decrease in absorbance

SMILES: C[N+](C)=C1[S][Au-2]2([S]1)[c]1ccccc1Cc1cccc[n+]12.F[P-](F)(F)(F)(F)F (stereo not drawn) [2a]
- Decrease in S phase versus control ([2]; 24 h): 6%
- Increase in G1 cell population versus control ([2]; 24 h): 10%
- G1 phase change over 72 h ([2]; 72 h): significant increase in G1 phase
- Stability in biological media (UV-vis absorbance) [1]: higher stability in PBS, and DMEM; also recorded: no significant decrease in absorbance
- Effect on OCR of MRC5 [3]: did not impact the OCR
